Values quoted from earlier work in patent US8183365B2, “Synthetic method for ceratamine A and B and analogs thereof” (The Ohio State University, priority 2009, dated 2012).

Details: cell-based assay; natural products isolated from sponge Pseudoceratina sp.

Compound | antimitotic activity
CNc1nc2ccn(C)c(=O)c(Cc3cc(Br)c(OC)c(Br)c3)c-2n1 [ceratamine A, Ceratamine A] | possess antimitotic activity
Ceratamine B | possess antimitotic activity
